Measurements from patent US20210338694A1, “SOS1 ALLOSTERIC SITE TARGETING” (priority 2020, published 2021).

Assays:
Type in all cases: cell-based
[1] = system: Mononuclear bone marrow cells harvested from Kras G12D/+ mice; test: CellTiter-Glo Luminescent Cell Viability Assay (growth inhibitory assay); conditions: Mus musculus, 48 h, 40 μM compound, two days of incubation, percentage of cells still alive at the end of the experiment, read-out: 40 μM (% Residual Activity)
Method: Mononuclear bone marrow cells harvested from Kras G12D/+ mice were tested for proliferation in a CellTiter-Glo® Luminescent Cell Viability Assay by Promega (Madison, Wis.) carried out by following the instructions provided by the manufacturer in the presence of 40 μM of 176 selected test compounds. […] The structures of these active compounds are shown in Table 1, along with the percentage of residual activity after two days of incubation with 40 μM of the compound. The residual activity is the percentage of cells that were still alive at the end of the experiment.

[2] = system: oncogenic Kras (G12C) transformed pancreatic MIA-PaCa-2 cells; test: Cell growth of treated cells; conditions: Kras (G12C) MIA-PaCa-2 cells, FIGS. 3-5
Method: FIGS. 3-5 show data from experiments in which oncogenic Kras (G12C) transformed pancreatic MIA-PaCa-2 cells were treated with NSC-70220, and an experiment in which wild-type Kras expressing pancreatic BxPC-3 ductal cells were treated with NSC-70220.

[3] = system: ERK activation of oncogenic Kras (G12D) pancreatic cancer cells; test: ERK activation by Western blotting of p-ERK, total ERK; conditions: Western blot, FIGS. 2A and 2B
[4] = system: Kras (G12D) transformed pancreatic cancer cells (4039); test: Cell growth in tissue culture over a four-day period; conditions: 40 μM, Kras (G12D) cells 4039, FIG. 1
Method: Kras (G12D) transformed pancreatic cancer cells (4039) and wild-type Kras expressing pancreatic cancer cells (4037) were each exposed to 40 μM of NSC-70220. Cell growth in the tissue culture was monitored by assays over a four-day period.

Row | Structure (SMILES) | activity at 40 µM [1] [%] | other results
1 | O=C(Nc1ccccc1C(=O)O)c1ccc([N+](=O)[O-])cc1 [Compound 114395] | 16 | –
2 | O=C(N/N=C(/C=C/c1ccccc1)c1ccccc1)c1ccccc1O [Compound 121366] | 12 | –
3 | O=C(NCc1ccccc1)/C(=C/C=C\c1ccccc1)NC(=O)c1ccccc1 [Compound 127987] | 5 | –
4 | COc1ccc(C=C2c3ccccc3-c3ccccc32)cc1 [Compound 262294] | 13 | –
5 | C=CCc1ccc(/C=N/NC(=O)c2ccccc2O)cc1O [Compound 290794] | 2 | –
6 | Cc1cc(C)c2oc(-c3ccc(C)c(/N=C/C=C/c4ccc(Br)c([N+](=O)[O-])c4)c3)nc2c1 [Compound 312987] | 8 | –
7 | O=C(N/N=C/c1ccc(O)c(O)c1)c1ccc(-c2ccccc2)cc1 [Compound 377089] | 6 | –
8 | O=C(N/N=C/c1ccc(OCc2ccccc2)cc1)c1cccc(F)c1 [Compound 377247] | 11 | –
9 | O=C(/C=C(\O)C(F)(F)/C(O)=C/C(=O)c1ccccc1)c1ccccc1 [Compound 387846] | 9 | –
10 | O=C(N/N=C/C=C/c1ccc([N+](=O)[O-])o1)c1ccccc1O [Compound 388883] | 1 | –
11 | O=C(NC(=S)NNC(=O)c1ccccc1O)c1ccc(-c2ccccc2)cc1 [Compound 390481] | 10 | –
12 | O=C(N/N=C/c1ccc2ccccc2c1)c1ccccc1O [Compound 393689] | 11 | –
13 | O=C(N/N=C/c1ccc(O)c(Br)c1)c1cc(Br)ccc1O [Compound 394392] | 3 | –
14 | O=[N+]([O-])c1ccc(C=C(c2nc3ccccc3s2)c2nc3ccccc3s2)cc1 [Compound 408776] | 12 | –
15 | O=C(NNC(=O)c1ccccc1C(=O)O)c1ccccc1O [Compound 473089] | 13 | –
16 | O=C(/C=C/c1ccc(/C=C/C(=O)c2ccc(O)cc2)cc1)c1ccc(O)cc1 [Compound 511128] | 1 | –
17 | O=C(C(=Cc1ccccc1[N+](=O)[O-])C(=O)c1ccccc1)c1ccccc1 [Compound 526470] | 15 | –
18 | O=C(Nc1cc(Cl)ccc1O)c1ccc(Cl)c(C(=O)c2ccc(Cl)cc2)c1 [Compound 773778] | 8 | –
19 | O=C(/C=C/c1ccccc1[N+](=O)[O-])c1ccco1 [Compound 775432] | 0 | –
20 | O=C(NC(=S)Nc1ccccc1O)c1ccc(-c2ccccc2)cc1 [Compound 920300] | 12 | –
21 | O=[N+]([O-])c1ccccc1/C=C/C=C1c2ccccc2-c2ccccc21 [NSC-70220] | 12 to 15 | inhibition of growth [2]: selectively inhibits growth; inhibition of ERK activation [3]: selectively inhibits ERK activation; inhibition of cell growth [4]: selectively inhibits
